Broadly, the pEC50 is −log10 of the EC50, conventionally taken in molar units. As a reminder, the EC90 is the concentration at which the effect reaches the 90% level.

pEC50: −log10 of the molar value. Some results are limits rather than exact numbers.

These results are taken from patent US20240238323A1, “MODIFIED NUCLEOSIDES AND NUCLEOTIDES ANALOGS AS ANTIVIRAL AGENTS FOR CORONA AND OTHER VIRUSES” (Emory University, priority 2021, published 2024).

For one test, the system named is SARS-CoV-2. Kind of test: microbe, parasite or virus in culture. In kind it is cell-based. The following applies: Severe acute respiratory syndrome coronavirus 2, Vero, 48 h, Vero cells; virus yield, 48 h post-infection; read-out: Anti-SARS-COV-2 activity in Vero cells EC50.
Consider `CC1(O)C(O)[C@@H](CO)O[C@H]1n1cc(F)c2c(N)ncnc21` (stereo partly drawn), for which the pEC50 is 5.12.

As to `COc1ncnc2c1c(C(F)(F)F)cn2[C@@H]1O[C@H](CO)C(O)C1(C)O` (stereo partly drawn), the pEC50 was over 5.00.

For the molecule `C#CC1C(O)[C@@H](CO)O[C@H]1n1cc(F)c(=O)[nH]c1=O` (stereo partly drawn), the pEC50 was over 5.00.

Take `CC1(O)C(O)[C@H](n2ccc(NO)nc2=O)S[C@@H]1CO` (stereo partly drawn): the pEC50 is 5.92.

As to `COc1nc(Cl)nc2c1ncn2[C@H]1CO[C@@H](CO)O1`, the pEC50 is over 5.00.

Turning to `COc1cnn([C@@H]2O[C@H](CO)C(O)C2O)c(=O)n1` (stereo partly drawn), the pEC50 is over 5.00.

`Nc1nc2c(ncn2[C@@H]2C[C@H](CO)C(O)C2O)c(=O)[nH]1` (stereo partly drawn): the negative-log EC50 (pEC50) is over 5.00.

As for `O=c1[nH]c(=O)n([C@H]2C[C@@H](CO)C(O)C2O)cc1F` (stereo partly drawn), the pEC50 is over 5.00.

As for `Nc1nc(O)c2[nH]cc([C@@H]3C[C@H](CO)C(O)C3O)c2n1` (stereo partly drawn), the pEC50 is over 5.00.

As to `Nc1ncnc2c1ncn2[C@@H]1C[C@H](CO)C(O)C1O` (stereo partly drawn), the pEC50 was over 5.00.

For the molecule `Nc1nc(Cl)nc2c1ncn2[C@H]1CO[C@@H](CO)O1`, the pEC50 is under 5.00.

`Nc1ccn([C@@H]2O[C@@](CO)(C3CCO3)C(O)C2F)c(=O)n1` (stereo partly drawn): the pEC50 was over 5.00.

Turning to `OC[C@@H]1OC[C@H](n2cnc3c(Cl)nc(Cl)nc32)O1`, the pEC50 is over 5.00.

In the case of `OC[C@@H]1CC[C@H](n2cnc3c(Cl)nc(Cl)nc32)C1`, the pEC50 was over 5.00.

As for `Nc1ccn([C@H]2CC[C@@H](CO)O2)c(=O)n1`, the pEC50 was over 5.00.

As to `OC[C@H]1O[C@@H](n2cnc3c(S)ncnc32)C(O)C1O` (stereo partly drawn), the pEC50 was 4.95.

Take `O=c1ccn([C@@H]2O[C@H](CO)CC2F)c(=O)[nH]1` (stereo partly drawn): the pEC50 is over 5.00.

Consider `O=c1ccn([C@H]2CC[C@@H](CO)O2)c(=O)[nH]1`, for which the pEC50 is 5.00.

As for `CC1(O)C(O)[C@H](n2ccc(N)nc2=O)O[C@@H]1CO` (stereo partly drawn), the pEC50 was 6.40.

On to `Nc1nccc2c1ncn2[C@@H]1O[C@H](CO)C(O)C1O` (stereo partly drawn), for which the pEC50 was 5.22.

Consider `Nc1ncnc2c1cnn2[C@H]1O[C@@H](CO)C(O)C1O` (stereo partly drawn), for which the pEC50 was over 5.00.

Consider `OC[C@@H]1C=C[C@H](n2cnc3c(Cl)nc(Cl)nc32)C1`, for which the pEC50 is over 5.00.

On to `OC[C@@H]1O[C@H](n2ncc3c(S)ncnc32)C(O)C1O` (stereo partly drawn), for which the pEC50 is over 5.00.

Turning to `O=c1ccn([C@@H]2C[C@H](CO)C(O)C2O)c(=O)[nH]1` (stereo partly drawn), the pEC50 was over 5.00.

For `Nc1ncnc2c1ccn2[C@@H]1C[C@H](CO)C(O)C1O` (stereo partly drawn), the pEC50 is over 5.00.

As for `C[C@@]1(O)C(O)[C@@H](CO)O[C@H]1n1ncc(=O)[nH]c1=O` (stereo partly drawn) [drawing 50], the pEC50 is 5.00.

On to `CC1(O)C(O)[C@@H](CO)O[C@H]1n1ccc(N)nc1=O` (stereo partly drawn), for which the pEC50 is 5.04.

With `CC(C)C(=O)OC[C@@H]1OC[C@H](n2cnc3c(Cl)nc(Cl)nc32)O1`, the pEC50 is 5.64.

With `C#C[C@]1(CO)O[C@@H](n2cnc3c(N)ncnc32)C(O)C1O` (stereo partly drawn), the pEC50 was over 5.00.

`CC1(F)C[C@@H](CO)O[C@H]1n1ccc(=O)[nH]c1=O` (stereo partly drawn): the pEC50 is 5.00.

Consider `[N-]=[N+]=NC1C(O)[C@@H](CO)O[C@H]1n1ccc(=O)[nH]c1=O` (stereo partly drawn), for which the pEC50 was over 5.00.

Regarding `O=c1nc(NO)ccn1C1CCC(CO)O1` (stereo not drawn), the pEC50 was 5.60.

On to `C#C[C@]1(CO)O[C@@H](N2C=CC(N)NC2=O)[C@H](O)[C@@H]1O` (stereo partly drawn), for which the pEC50 was over 5.00.

As for `O=c1cnn([C@@H]2O[C@H](CO)C(O)C2O)c(=O)[nH]1` (stereo partly drawn) [drawing 46], the pEC50 was 6.12.

`Nc1nc(N)c2ncn([C@H]3CO[C@@H](CO)O3)c2n1`: the pEC50 is 5.00.

For `Nc1ncnc2c([C@H]3O[C@@H](CO)C(O)C3O)cnn12` (stereo partly drawn), the pEC50 was over 5.00.

Turning to `OC[C@@H]1O[C@H](n2nnc3c(O)ncnc32)C(O)C1O` (stereo partly drawn), the pEC50 is over 5.00.

Regarding `Nc1ccn([C@@H]2O[C@@](CO)(COC(F)F)[C@@H](O)[C@H]2F)c(=O)n1`, the pEC50 is over 5.00.

With `Nc1cnn([C@@H]2O[C@H](CO)C(O)C2O)c(=O)n1` (stereo partly drawn), the pEC50 is over 5.00.

In the case of `[N-]=[N+]=NC1C[C@@H](COC(=O)c2ccccc2)O[C@H]1n1ccc(=O)[nH]c1=O` (stereo partly drawn), the pEC50 is 5.00.

Regarding `NC1C=CN([C@@H]2O[C@H](CO)CC2(Cl)Cl)C(=O)N1` (stereo partly drawn), the pEC50 is over 5.00.

For `O=c1ccn([C@H]2CC(F)(F)[C@@H](CO)S2)c(=O)[nH]1`, the pEC50 was over 5.00.

In the case of `OC[C@H]1C[C@@H](c2c[nH]c3c(O)ncnc23)C(O)C1O` (stereo partly drawn), the pEC50 was over 5.00.

On to `Nc1ncnc2c([C@@H]3C[C@H](CO)C(O)C3O)c[nH]c12` (stereo partly drawn), for which the pEC50 is over 5.00.

Staying with this test, now noted: Severe acute respiratory syndrome coronavirus 2, Vero, 48 h, read-out: Anti-SARS-COV-2 activity in Vero cells EC50.
As to `CC(C)OC(=O)[C@H](C)NP(=O)(OC[C@@H]1C=C[C@H](n2cnc3c(Cl)nc(Cl)nc32)C1)Oc1ccccc1` (stereo partly drawn), the pEC50 was over 5.00.

Regarding `CCOC(=O)[C@H](C)NP(=O)(OC[C@@H]1OC[C@H](n2cnc3c(OC)nc(N)nc32)O1)Oc1ccccc1` (stereo partly drawn), the pEC50 was under 5.00.

`CC(C)OC(=O)[C@H](C)N[P@](=O)(OC[C@@H]1OC[C@H](n2cnc3c(Cl)nc(Cl)nc32)O1)Oc1ccccc1`: the pEC50 is under 5.00.

For `CC(C)OC(=O)[C@H](C)NP(=O)(OC[C@H]1O[C@@H](n2ccc(N)nc2=O)C(O)C1(C)O)Oc1ccccc1` (stereo partly drawn), the negative-log EC50 (pEC50) was 5.03.

As to `CC(C)OC(=O)[C@H](C)NP(=O)(OC[C@H]1O[C@@H](n2cnc3c(N)ncnc32)C(C)(O)C1O)Oc1ccccc1` (stereo partly drawn), the pEC50 is over 5.00.

Turning to `Nc1nc2c(ncn2[C@H]2CO[C@@H](CO)O2)c(=O)[nH]1`, the pEC50 was under 5.00.

`CC(C)OC(=O)[C@H](C)NP(=O)(OC[C@H]1C[C@@H](n2cnc3c(N)ncnc32)C(O)C1O)Oc1ccccc1` (stereo partly drawn): the negative logarithm of the EC50 (pEC50) is over 5.00.

Turning to `C#C[C@]1(CO[P@@](=O)(N[C@@H](C)C(=O)OC(C)C)Oc2ccccc2)O[C@@H](n2ccc(=O)[nH]c2=O)[C@H](O)[C@@H]1O`, the pEC50 is over 5.00.

Regarding `CC(C)OC(=O)[C@H](C)N[P@@](=O)(OC[C@H]1O[C@@H](n2ccc(=O)[nH]c2=O)C(F)C1O)Oc1ccccc1` (stereo partly drawn), the pEC50 was over 5.00.

Regarding `CC(C)OC(=O)[C@H](C)NP(=O)(OC[C@@H]1CC[C@H](n2cnc3c(Cl)nc(Cl)nc32)C1)Oc1ccccc1` (stereo partly drawn), the pEC50 is over 5.00.

As for `CC(C)OC(=O)[C@H](C)N[P@](=O)(OC[C@H]1O[C@@H](n2ncc(=O)[nH]c2=O)[C@](C)(O)C1O)Oc1ccccc1` (stereo partly drawn), the pEC50 is 5.00.

For the molecule `CC(C)OC(=O)[C@H](C)N[P@](=O)(OC[C@H]1O[C@@H](n2ncc(=O)[nH]c2=O)C(O)C1O)Oc1ccccc1` (stereo partly drawn), the pEC50 is over 5.00.

The test is the same for the next values; noted with them: Severe acute respiratory syndrome coronavirus 2, Vero, 48 h, read-out: Anti-SARS-COV-2 activity in Vero cells EC90.
In the case of `CC(C)OC(=O)[C@H](C)NP(=O)(OC[C@H]1O[C@@H](n2ccc(N)nc2=O)C(O)C1(C)O)Oc1ccccc1` (stereo partly drawn), the EC90 is over 10 µM.

Still in this test, the particulars now being: Severe acute respiratory syndrome coronavirus 2; Vero cells; virus yield, 48 h post-infection; read-out: Anti-SARS-COV-2 activity in Vero cells EC90.
With `CC1(O)C(O)[C@@H](CO)O[C@H]1n1cc(F)c2c(N)ncnc21` (stereo partly drawn), the EC90 was 28.8 µM.

Regarding `CC1(O)C(O)[C@H](n2ccc(NO)nc2=O)S[C@@H]1CO` (stereo partly drawn), the EC90 was 8.7 µM.

As for `OC[C@H]1O[C@@H](n2cnc3c(S)ncnc32)C(O)C1O` (stereo partly drawn), the EC90 came to 23.5 µM.

In the case of `CC1(O)C(O)[C@H](n2ccc(N)nc2=O)O[C@@H]1CO` (stereo partly drawn), the EC90 is 3.6 µM.

As for `Nc1nccc2c1ncn2[C@@H]1O[C@H](CO)C(O)C1O` (stereo partly drawn), the EC90 amounted to 15.2 µM.

As to `CC1(O)C(O)[C@@H](CO)O[C@H]1n1ccc(N)nc1=O` (stereo partly drawn), the EC90 is 29.6 µM.

`CC(C)C(=O)OC[C@@H]1OC[C@H](n2cnc3c(Cl)nc(Cl)nc32)O1`: the EC90 is 6.5 µM.

As for `O=c1nc(NO)ccn1C1CCC(CO)O1` (stereo not drawn), the EC90 worked out at 83.4 µM.

With `O=c1cnn([C@@H]2O[C@H](CO)C(O)C2O)c(=O)[nH]1` (stereo partly drawn) [drawing 46], the EC90 worked out at 2.5 µM.

Still in this test, the particulars now being: Vero cells; virus yield, 48 h post-infection; read-out: Anti-SARS-COV-2 activity in Vero cells EC50.
Regarding `C[C@@]1(O)C(O)[C@@H](CO)O[C@H]1n1ncc(=O)[nH]c1=O` (stereo partly drawn) [drawing 58], the pEC50 is over 5.00.

For another test, the target named is SARS-CoV-2 RdRp complex (nsp12-nsp7-nsp8) (Severe acute respiratory syndrome coronavirus 2, UniProt P0DTD1).
Assay: not given
In kind it is biochemical. The following applies: concentrations of 1, 10 and 100 μM.
With `O=c1cnn([C@@H]2O[C@H](CO)C(O)C2O)c(=O)[nH]1` (stereo partly drawn) [drawing 105], the “inhibition of RNA synthesis by RdRp complex” value is listed as “not significantly inhibited”.

Still in this test, the particulars now being: concentrations of 250 and 500 μM.
For the molecule `O=c1cnn([C@@H]2O[C@H](CO)C(O)C2O)c(=O)[nH]1` (stereo partly drawn) [drawing 105], the “inhibition of RNA synthesis by RdRp complex” value is “significant inhibition”.
